Measurements published in PMC9820430, “New Affordable Methods for Large-Scale Isolation of Major Olive Secoiridoids and Systematic Comparative Study of Their Antiproliferative/Cytotoxic Effect on Multiple Cancer Cell Lines of Different Cancer Origins” (International Journal of Molecular Sciences, 2022).
Where two headings read alike, the source gives them in different places.

Legend:
SK-BR-3 [1] = conditions: cited from earlier work
MDA-MB 231 [2] = conditions: cited from earlier work
H1299 = experiment: Annexin V-FITC/PI staining, flow cytometry; assay type: cell-based, human; conditions: 48 h at EC50
From the text: (§1) To discern whether cell death triggered by OOPs treatment occurred via apoptosis or necrosis under the experimental conditions applied in this study, live cells treated with OOPs were stained simultaneously with FITC-conjugated annexin V and propidium iodide (PI). Annexin V binds to phosphatidylserine (PS) translocating from the inner to the outer leaflet of the plasma membrane in apoptotic cells. Therefore, annexin V-FITC binding to PS labels live apoptotic cells with green FL. […] PS exposure to the extracellular space and cell membrane permeability were analyzed by flow cytometry as described in detail in the Experimental Section. […] OOP concentrations used were equal to the EC50 values for each cell line (Table 1). annexin V and PI staining discriminated between early- (i.e., annexin V +ve and PI −ve) and late-apoptotic cells (i.e., annexin V +ve and PI +ve), as well as between necrotic (i.e., annexin V −ve and PI +ve) and live (i.e., annexin V −ve and PI −ve) cells (Table 4).
(§2) Apoptosis and necrosis were assessed by double staining with annexin V-FITC and propidium iodide (PI) and were analyzed using flow cytometry (FACS). Human cancer cells were plated in 96-well culture plates in 100 μL of complete medium and were allowed to adhere overnight (~16 h). […] In detail, 0.5 μL of a 500× stock of each tested compound in DMSO was added directly into each well in a final volume of 250 μL culture medium and was gently mixed by pipetting. Control wells were prepared under the same experimental conditions by adding only DMSO at a final concentration of 0.2% (v/v). At the end of the treatment, the cells were detached by trypsinization, media with serum was added to deactivate trypsin, and the cells from three wells were pooled together by centrifugation (1000 rpm, 5 min, 24 °C), washed with cold PBS, centrifuged (1000 rpm, 5 min, 24 °C) and finally resuspended in cold 1× annexin V binding buffer (10 mM HEPES pH = 7.4, 150 mM NaCl, 2.5 mM CaCl2) at a density of 10^4 cells/mL. Staining was performed by incubating with annexin V- FITC and propidium iodide (PI; BioLegend) for 15 min at room temperature in the dark, according to the manufacturer’s instructions. Negative control samples consisted of cells treated only with 0.2% (v/v) DMSO for the same incubation time length (i.e., 48 h). Cells treated with Triton X-100 (0.25% (v/v)) for 5 min at 4 °C were used as controls for 100% permeabilization of the plasma membrane and maximum fluorescence staining with PI (positive control for cells in necrosis). The presence of live, apoptotic or necrotic cells was assessed with the FACS Calibur (Becton–Dickinson, San Jose, CA, USA). In total, 10,000 cells were analyzed per measurement and the acquired data were analyzed using the FlowJo V.10.0.8 software (Tree Star Inc., Ashland, OR, USA). Each condition was analyzed in duplicate, and the results presented are from 2 or 3 independent experiments.
(§3) Data showing OOPs’ apoptotic/necrotic effect were derived from two or three independent experiments and were presented as the means ± SE of the percentage (%) of both annexin V-positive cells (early apoptotic events) and % of annexin V/PI positive cells (late apoptotic events) over the whole cell population normalized to the corresponding events of the control cells, as determined using the FlowJo software.

SK-BR-3 [3] = experiment: Annexin V-FITC/PI staining, flow cytometry; assay type: cell-based, human; conditions: 48 h at EC50
From the text: as §1, §2, §3

AGS = experiment: Annexin V-FITC/PI staining, flow cytometry; assay type: cell-based, human; conditions: 48 h at EC50
From the text: as §1, §2, §3

PANC-1 = experiment: Annexin V-FITC/PI staining, flow cytometry; assay type: cell-based, human; conditions: 48 h at EC50
From the text: as §1, §2, §3

MDA-MB 231 [4] = experiment: Annexin V-FITC/PI staining, flow cytometry; assay type: cell-based, human
From the text: as §1
as §2, with “Negative control samples consisted of cells treated only with 0.2% (v/v) DMSO for the same incubation time length (i.e., 48 h).” left out
as §3

SK-MEL-28 = experiment: Annexin V-FITC/PI staining, flow cytometry; assay type: cell-based, human
From the text: as §1
as §2, with “Negative control samples consisted of cells treated only with 0.2% (v/v) DMSO for the same incubation time length (i.e., 48 h).” left out
as §3

Row | Compound | % Cell Viability (H1299) [%] | Early Apoptotic (% ± S.D.) (H1299) [%] | Late Apoptotic (% ± S.D.) (H1299) [%] | % Cell Viability (SK-BR-3 [3]) [%] | Early Apoptotic (% ± S.D.) (SK-BR-3 [3]) [%] | Late Apoptotic (% ± S.D.) (SK-BR-3 [3]) | Total Apoptotic (%) (SK-BR-3 [3]) | % Cell Viability (AGS) [%] | Early Apoptotic (% ± S.D.) (AGS) [%] | Late Apoptotic (% ± S.D.) (AGS) [%] | Total Apoptotic (%) (AGS) | % Cell Viability (PANC-1) [%] | Early Apoptotic (% ± S.D.) (PANC-1) [%] | Late Apoptotic (% ± S.D.) (PANC-1) | Total Apoptotic (%) (PANC-1) | % Cell Viability (MDA-MB 231 [4]; 48 h at EC50) [%] | % Cell Viability (SK-MEL-28; 48 h at EC50) [%] | Early Apoptotic (% ± S.D.) (SK-MEL-28; 48 h at EC50) [%] | Late Apoptotic (% ± S.D.) (SK-MEL-28; 48 h at EC50) | Total Apoptotic (%) (SK-MEL-28; 48 h at EC50) | further results
1 | C/C=C(/C=O)[C@@H](CC=O)CC(=O)OCCc1ccc(O)cc1 [compound 1, oleocanthal] | 57 | 4.77 ± 0.9 | 7.27 ± 0.2 | 59 | 7.45 ± 4.4 | 1.26 ± 0.7% | 8.71 ± 5.1 | 33 | 18.42 ± 4.4 | 4.94 ± 3.1 | 23.36 ± 1.4 | 60 | 4.47 ± 0.8 | No L.A. | 4.47 ± 0.8 | 85 | 68 | 4.10 ± 0.2 | 2.47 ± 0.7% | 6.57 ± 0.5 | EC50 (SK-BR-3 [1]; 48 h treatment in HGF- and EGF-supplemented media, ref Siddique et al. (2019) 76, read-out: EC50): 27.3 µM; EC50 (MDA-MB 231 [2]; 48 or 72 h, different culture conditions): 10 to 18.5 µM; Early Apoptotic (% ± S.D.) (MDA-MB 231 [4]; 48 h at EC50): 1.19 ± 0.01%; Late Apoptotic (% ± S.D.) (MDA-MB 231 [4]; 48 h at EC50): 1.38 ± 0.1%; Total Apoptotic (%) (MDA-MB 231 [4]; 48 h at EC50): 2.56 ± 0.1%
2 | COC(=O)C1=COC(C)[C@@H](C=O)[C@@H]1CC(=O)OCCc1ccc(O)c(O)c1 (mixture of isomers) [3a,b, oleuropein aglycone] | 40 | 9.14 ± 3.1 | 5.44 ± 2.2 | 59 | 7.63 ± 1.9 | No L.A. | 7.63 ± 1.9 | 31 | 19.40 ± 0.6 | 8.08 ± 2.0 | 27.48 ± 1.4 | 40 | 8.52 ± 2.3 | 3.01 ± 2.0% | 11.52 ± 4.3 | 69 | 68 | 8.33 ± 1.9 | 4.91 ± 1.7% | 13.24 ± 3.7 | EC50 (SK-BR-3 [1]; five days of treatment, ref Menendez et al. (2007) 17, read-out: concentration reducing cell viability by 50%): 47 µM; EC50 (MDA-MB 231 [2]; ref Mazzei et al. (2020) 27): 53 µM; Total Apoptotic (%) (H1299): 14.58 ± 5.3%; Early Apoptotic (% ± S.D.) (MDA-MB 231 [4]; 48 h at EC50): 4.17± 0.4%; Late Apoptotic (% ± S.D.) (MDA-MB 231 [4]; 48 h at EC50): 3.87 ± 3.7%; Total Apoptotic (%) (MDA-MB 231 [4]; 48 h at EC50): 8.04 ± 4.1%
3 | ligstroside aglycone [4a,b] | – | – | – | 87 | 1.30 ± 0.3 | No L.A. | 1.30 ± 0.3 | 36 | 16.03 ± 0.8 | 7.77 ± 1.8 | 23.79 ± 2.6 | 34 | 12.37 ± 2.7 | 4.42 ± 0.4% | 16.78 ± 3.1 | – | 82 | 1.86 ± 0.8 | No L.A. | 1.86 ± 0.8 | EC50 (SK-BR-3 [1]; 5 day treatment, read-out: EC50): 26 ± 6 µM; EC50 (MDA-MB 231 [2]; 48 h treatment, ref Busnena et al. (2013) 23): ~80 µM
4 | C/C=C(/C=O)[C@@H](CC=O)CC(=O)OCCc1ccc(O)c(O)c1 [compound 2, oleacein] | 40 | 5.96 ± 1.6 | 3.07 ± 1.8 | 60 | 5.78 ± 0.9 | No L.A. | 5.78 ± 0.9 | 41 | 10.00 ± 1.3 | 4.55 ± 1.8 | 14.55 ± 3.1 | 58 | 4.39 ± 1.8 | No L.A. | 4.39 ± 1.8 | 73 | 76 | 5.87 ± 1.1 | No L.A. | 5.87 ± 1.1 | Total Apoptotic (%) (H1299): 9.03 ± 0.2%; Early Apoptotic (% ± S.D.) (MDA-MB 231 [4]; 48 h at EC50): 1.89 ± 0.03%; Late Apoptotic (% ± S.D.) (MDA-MB 231 [4]; 48 h at EC50): 1.49 ± 0.3%; Total Apoptotic (%) (MDA-MB 231 [4]; 48 h at EC50): 3.38 ± 0.2%; % Cell Viability (MDA-MB 231 [4]; 72 h at EC50): 70%; Early Apoptotic (% ± S.D.) (MDA-MB 231 [4]; 72 h at EC50): 3.65 ± 0.5%; Late Apoptotic (% ± S.D.) (MDA-MB 231 [4]; 72 h at EC50): 1.64 ± 0.5%; Total Apoptotic (%) (MDA-MB 231 [4]; 72 h at EC50): 5.29 ± 1.0%; % Cell Viability (SK-MEL-28; 72 h at EC50): 72%; Early Apoptotic (% ± S.D.) (SK-MEL-28; 72 h at EC50): 6.70 ± 1.0%; Late Apoptotic (% ± S.D.) (SK-MEL-28; 72 h at EC50): 1.34 ± 0.3%; Total Apoptotic (%) (SK-MEL-28; 72 h at EC50): 8.04 ± 0.7%
